Values after ≈ are worked out from the molar mass of the structure shown.
Each compound was assayed on Mycobacterium smegmatis (ATCC607) (assay: In-vitro anti-bacterial activity against strain M. Smegmatis ATCC607). Details: 90% inhibitory concentration for bacterial growth, 48 hours, Alamar Blue fluorescence.
Assay type: cell-based
Protocol: D.1. In-Vitro Method for Testing Compounds for Anti-Bacterial Activity Against Strain M. Smegmatis ATCC607
Flat-bottom, sterile 96-well plastic microtiter plates were filled with 180 μl of sterile deionized water, supplemented with 0.25% BSA. Subsequently, stock solutions (7.8× final test concentration) of compounds were added in 45 μl volumes to a series of duplicate wells in column 2 so as to allow evaluation of their effects on bacterial growth. Serial five-fold dilutions (45 μl in 180 μl) were made directly in the microtiter plates from column 2 to 11 using a customised robot system (Zymark Corp., Hopkinton, Mass.). Pipette tips were changed after every 3 dilutions to minimize pipetting errors with high hydrophobic compounds. Untreated control samples with (column 1) and without (column 12) inoculum were included in each microtiter plate. Approximately 250 CFU per well of bacteria inoculum, in a volume of 100 μl in 2.8× Mueller-Hinton broth medium, was added to the rows A to H, except column 12. The same volume of broth medium without inoculum was added to column 12 in row A to H. The cultures were incubated at 37° C. for 48 hours in a humidified 5% CO2 atmosphere (incubator with open air valve and continuous ventilation). At the end of incubation, two days after inoculation, the bacterial growth was quantitated fluorometrically. Therefore Alamar Blue (10×) was added to all wells in a volume of 20 μl and plates were incubated for another 2 hours at […]
The fluorescence was read in a computer-controlled fluorometer (Cytofluor, Biosearch) at an excitation wavelength of 530 nm and an emission wavelength of 590 nm (gain 30). The percentage growth inhibition achieved by the compounds was calculated according to standard methods and expressed as IC90 (μg/ml) which defines the 90% inhibitory concentration for bacterial growth.

Row | SMILES | IC90 MSM 607 [µg/mL]
1 | COc1nc2ccc(Cl)cc2cc1C(c1ccc(Cl)cc1)C1(O)CCNC(Cc2ccccc2)C1 (centres unmarked) [Compound 95] | 1.43 (≈ 2.82 µM)
2 | Cc1cc(F)ccc1C1CC(O)(C(c2ccc(Cl)cc2)c2cc3cc(Br)ccc3[nH]c2=O)CCN1 (centres unmarked) [Compound 106] | <0.93
3 | Cc1cc(F)ccc1C1CC(O)(C(c2ccc(Cl)cc2)c2cc3cc(Br)ccc3[nH]c2=O)CCN1 (centres unmarked) [Compound 107] | 2.65 (≈ 4.77 µM)
4 | Cc1cc(F)ccc1C1CC(O)(C(c2ccc(Cl)cc2)c2cc3cc(Br)ccc3[nH]c2=O)CCN1 (centres unmarked) [Compound 110] | 1.87 (≈ 3.36 µM)
5 | CS(=O)(=O)c1ccc2[nH]c(=O)c(C(c3ccc(Cl)cc3)C3(O)CCNC(Cc4ccccc4)C3)cc2c1 (centres unmarked) [Compound 119] | >16.90
6 | CS(=O)(=O)c1ccc2[nH]c(=O)c(C(c3ccc(Cl)cc3)C3(O)CCNC(Cc4ccccc4)C3)cc2c1 (centres unmarked) [Compound 120] | 5.37 (≈ 10 µM)
7 | COc1nc2ccc(Br)cc2cc1C(c1ccc(Cl)cc1)C1(O)CCNC(C)C1 (centres unmarked) [Compound 125] | 3.00 (≈ 6.3 µM)
8 | O=c1[nH]c2ccc(Br)cc2cc1C(c1ccc(Cl)cc1)C1(O)CCNC(Cc2ccc(F)c(F)c2)C1 (centres unmarked) [Compound 126] | 3.06 (≈ 5.33 µM)
9 | O=c1[nH]c2ccc(Br)cc2cc1C(c1ccc(Cl)cc1)C1(O)CCNC(Cc2ccc(F)c(F)c2)C1 (centres unmarked) [Compound 127] | 3.06 (≈ 5.33 µM)
10 | CC1CC(O)(C(c2ccc(Cl)cc2)c2cc3cc(Br)ccc3[nH]c2=O)CCN1 (centres unmarked) [Compound 130] | 5.81 (≈ 12.6 µM)
11 | CC1CC(O)(C(c2ccc(Cl)cc2)c2cc3cc(Br)ccc3[nH]c2=O)CCN1 (centres unmarked) [Compound 131] | 4.98 (≈ 10.8 µM)
12 | O=c1[nH]c2ccc(Br)cc2cc1C(c1ccc(Cl)cc1)C1(O)CCNC(Cc2ccc(F)c(F)c2)C1 (centres unmarked) [Compound 133] | 3.06 (≈ 5.33 µM)
13 | O=c1[nH]c2ccc(Br)cc2cc1C(c1ccc(Cl)cc1)C1(O)CCNC(Cc2ccc(F)c(F)c2)C1 (centres unmarked) [Compound 134] | 3.86 (≈ 6.73 µM)
14 | Cc1cc(F)ccc1C1CC(O)(C(c2cccc(Cl)c2)c2cc3cc(Br)ccc3[nH]c2=O)CCN1 (centres unmarked) [Compound 135] | 1.84 (≈ 3.31 µM)
15 | Cc1cc(F)ccc1C1CC(O)(C(c2cccc(Cl)c2)c2cc3cc(Br)ccc3[nH]c2=O)CCN1 (centres unmarked) [Compound 136] | 1.47 (≈ 2.64 µM)
16 | Cc1cc(F)ccc1C1CC(O)(C(c2cccc(Cl)c2)c2cc3cc(Br)ccc3[nH]c2=O)CCN1 (centres unmarked) [Compound 137] | 1.65 (≈ 2.97 µM)
17 | Cc1cc(F)ccc1C1CC(O)(C(c2cccc(Cl)c2)c2cc3cc(Br)ccc3[nH]c2=O)CCN1 (centres unmarked) [Compound 138] | 1.18 (≈ 2.12 µM)
18 | COc1nc2ccccc2cc1C(c1ccc(Cl)cc1)C1(O)CCNC(Cc2ccc(F)c(F)c2)C1 (centres unmarked) [Compound 139] | 1.78 (≈ 3.5 µM)
19 | COc1nc2ccccc2cc1C(c1ccc(Cl)cc1)C1(O)CCNC(Cc2ccc(F)c(F)c2)C1 (centres unmarked) [Compound 140] | 0.72 (≈ 1.41 µM)

What follows are compounds tested on Staphylococcus aureus (ATCC29213) (assay: In-vitro anti-bacterial activity, microtitre plate assay, IC90 determination (non-mycobacterial strains)). Details: 90% inhibitory concentration for bacterial growth, 24 hours, resazurin fluorescence.
Assay type: cell-based
Protocol: D.2. In-Vitro Method for Testing Compounds for Anti-Bacterial Activity Against Various Non-Mycobacterial Strains
Preparation of Bacterial Suspensions for Susceptibility Testing:
The bacteria used in this study were grown overnight in flasks containing 100 ml Mueller-Hinton Broth (Becton Dickinson—cat. no. 275730) in sterile de-ionized water, with shaking, at 37° C. Stocks (0.5 ml/tube) were stored at −70° C. until use. Bacteria titrations were performed in microtiter plates to detect the TCID50, in which TCID50 represents the dilution that gives rise to bacterial growth in 50% of inoculated cultures. In general, an inoculum level of approximately 100 TCID50 was used for susceptibility testing.
Anti Bacterial Susceptibility Testing: IC90 Determination
Flat-bottom, sterile 96-well plastic microtiter plates were filled with 180 μl of sterile deionized water, supplemented with 0.25% BSA. Subsequently, stock solutions (7.8× final test concentration) of compounds were added in 45 μl volumes in column 2 Serial five-fold dilutions (45 μl in 180 μl) were made directly in the microtiter plates from column 2 to reach column 11. Untreated control samples with (column 1) and without (column 12) inoculum were included in each microtiter plate. Depending on the bacteria type, approximately 10 to 60 CFU per well of bacteria inoculum (100 TCID50), in a volume of 100 μl in 2.8× Mueller-Hinton broth medium, was added to the rows A to H, except column 12. The same volume of broth medium without inoculum was added to column 12 in row A to H. The cultures were incubated at 37° C. for 24 hours under a normal atmosphere (incubator with open air valve and continuous ventilation). At the end of incubation, one day after inoculation, the bacterial growth was quantitated fluorometrically. Therefore resazurin (0.6 mg/ml) was added in a volume of 20 μl to all wells 3 hours after inoculation, and the plates were re-incubated overnight. A change in colour from blue to pink indicated the growth of bacteria. The fluorescence was read in a computer-controlled fluorometer (Cytofluor Biosearch) at an excitation wavelength of 530 nm and an emission wavelength of 590 nm. The % growth inhibition achieved by the compounds was calculated according to standard methods. The IC90 (expressed in μg/ml) was defined as the 90% inhibitory concentration for bacterial growth.

Row | SMILES | IC90 STA B29213 [µg/mL]
20 | COc1nc2ccc(Cl)cc2cc1C(c1ccc(Cl)cc1)C1(O)CCNC(Cc2ccccc2)C1 (centres unmarked) [Compound 95] | 2.02 (≈ 3.98 µM)
21 | Cc1cc(F)ccc1C1CC(O)(C(c2ccc(Cl)cc2)c2cc3cc(Br)ccc3[nH]c2=O)CCN1 (centres unmarked) [Compound 106] | 1.87 (≈ 3.36 µM)
22 | Cc1cc(F)ccc1C1CC(O)(C(c2ccc(Cl)cc2)c2cc3cc(Br)ccc3[nH]c2=O)CCN1 (centres unmarked) [Compound 110] | 1.87 (≈ 3.36 µM)
23 | CS(=O)(=O)c1ccc2[nH]c(=O)c(C(c3ccc(Cl)cc3)C3(O)CCNC(Cc4ccccc4)C3)cc2c1 (centres unmarked) [Compound 119] | >16.90
24 | CS(=O)(=O)c1ccc2[nH]c(=O)c(C(c3ccc(Cl)cc3)C3(O)CCNC(Cc4ccccc4)C3)cc2c1 (centres unmarked) [Compound 120] | 6.76 (≈ 12.6 µM)
25 | COc1nc2ccc(Br)cc2cc1C(c1ccc(Cl)cc1)C1(O)CCNC(C)C1 (centres unmarked) [Compound 125] | 3.00 (≈ 6.3 µM)
26 | O=c1[nH]c2ccc(Br)cc2cc1C(c1ccc(Cl)cc1)C1(O)CCNC(Cc2ccc(F)c(F)c2)C1 (centres unmarked) [Compound 126] | 3.85 (≈ 6.71 µM)
27 | O=c1[nH]c2ccc(Br)cc2cc1C(c1ccc(Cl)cc1)C1(O)CCNC(Cc2ccc(F)c(F)c2)C1 (centres unmarked) [Compound 127] | 1.93 (≈ 3.36 µM)
28 | CC1CC(O)(C(c2ccc(Cl)cc2)c2cc3cc(Br)ccc3[nH]c2=O)CCN1 (centres unmarked) [Compound 130] | 11.60 (≈ 25.1 µM)
29 | CC1CC(O)(C(c2ccc(Cl)cc2)c2cc3cc(Br)ccc3[nH]c2=O)CCN1 (centres unmarked) [Compound 131] | >6.27
30 | O=c1[nH]c2ccc(Br)cc2cc1C(c1ccc(Cl)cc1)C1(O)CCNC(Cc2ccc(F)c(F)c2)C1 (centres unmarked) [Compound 133] | 3.85 (≈ 6.71 µM)
31 | O=c1[nH]c2ccc(Br)cc2cc1C(c1ccc(Cl)cc1)C1(O)CCNC(Cc2ccc(F)c(F)c2)C1 (centres unmarked) [Compound 134] | 3.07 (≈ 5.35 µM)
32 | Cc1cc(F)ccc1C1CC(O)(C(c2cccc(Cl)c2)c2cc3cc(Br)ccc3[nH]c2=O)CCN1 (centres unmarked) [Compound 135] | 1.84 (≈ 3.31 µM)
33 | Cc1cc(F)ccc1C1CC(O)(C(c2cccc(Cl)c2)c2cc3cc(Br)ccc3[nH]c2=O)CCN1 (centres unmarked) [Compound 136] | 2.08 (≈ 3.74 µM)
34 | Cc1cc(F)ccc1C1CC(O)(C(c2cccc(Cl)c2)c2cc3cc(Br)ccc3[nH]c2=O)CCN1 (centres unmarked) [Compound 137] | 3.69 (≈ 6.64 µM)
35 | Cc1cc(F)ccc1C1CC(O)(C(c2cccc(Cl)c2)c2cc3cc(Br)ccc3[nH]c2=O)CCN1 (centres unmarked) [Compound 138] | 2.35 (≈ 4.23 µM)
36 | COc1nc2ccccc2cc1C(c1ccc(Cl)cc1)C1(O)CCNC(Cc2ccc(F)c(F)c2)C1 (centres unmarked) [Compound 140] | 2.55 (≈ 5.01 µM)

Same assay, conditions: Staphylococcus aureus, ATCC29213, 24 h, 90% inhibitory concentration for bacterial growth, resazurin fluorescence, read-out: IC90 STA B29213

Row | SMILES | IC90 [µg/mL]
37 | Cc1cc(F)ccc1C1CC(O)(C(c2ccc(Cl)cc2)c2cc3cc(Br)ccc3[nH]c2=O)CCN1 (centres unmarked) [Compound 107] | 1.87 (≈ 3.36 µM)
38 | COc1nc2ccccc2cc1C(c1ccc(Cl)cc1)C1(O)CCNC(Cc2ccc(F)c(F)c2)C1 (centres unmarked) [Compound 139] | 2 (≈ 3.93 µM)

Source: patent publication US9617244B2, “Antibacterial quinoline derivatives” (JANSSEN PHARMACEUTICA NV, priority 2012, dated 2017)
